The subject of one test is human rhinovirus 1B. In kind it is cell-based.
A further test has as its system MERS-CoV. In kind it is cell-based. The settings on record: 1 μM riboflavin with various amounts of ascorbate in artificial saliva; 425 nm light 15 J/cm^2; FIG. 4B.
The test system of test [1] is human coronavirus OC43 (HCoV-OC43). The experiment in a line: 425 nm light inhibition of HCoV-OC43 in the presence of vitamins in artificial saliva, virus titer (PFU/mL). Type of test: cell-based. To be noted: 10 μM RFN in artificial saliva, doses as low as 7.5 J/cm^2 (up to 45 J/cm^2), FIG. 1B. An excerpt:
FIGS. 1A to 1D are provided in the context of HCoV-OC43, which is generally known as one of the viruses associated with the common cold. FIG. 1A is a chart illustrating an experimental control where light treatments were applied to HCoV-OC43 samples in the absence of any vitamins. […] A first sample included HCoV-OC43 in only its corresponding media, and the other two samples further included different artificial saliva sources (labeled as Saliva 1 and Saliva 2 in FIG. 1A).
FIG. 1B is a chart illustrating light treatments on HCoV-OC43 samples where various amounts of riboflavin (abbreviated as RFN) were diluted in a same type of artificial saliva and added to the HCoV-OC43 samples.
FIG. 1C is a chart illustrating light treatments on HCoV-OC43 samples where various amounts of ascorbate (abbreviated as AA) and 10 μM of RFN were diluted in a same type of artificial saliva and added to the HCoV-OC43 samples. […] The constant amount of RFN (10 μM) was selected based on the improvements illustrated in FIG. 1B.
FIG. 1D is a chart illustrating light treatments on HCoV-OC43 samples where various amounts of ascorbate were diluted in a same type of artificial saliva and added to the HCoV-OC43 samples in the absence of riboflavin.

For a further test, the system named is influenza B. The settings on record: 10 μM riboflavin; 425 nm light 30 J/cm^2; FIG. 6F.
The subject of the next test is influenza A. In kind it is cell-based. The settings on record: for reduction in viral loads of influenza A: 425 nm light 30 J/cm^2.

Entries after “also recorded” stand apart in the source; their conditions may differ. Like-named read-outs stand apart in the source and are kept apart here.

Turning to `Cc1cc2nc3c(=O)[nH]c(=O)nc-3n(C[C@H](O)[C@H](O)[C@H](O)CO)c2cc1C` [riboflavin], the “reduction in viral loads of human rhinovirus 1B” value in the test with human rhinovirus 1B (10 μM riboflavin with various ascorbate in Saliva 2, 425 nm light 32 J/cm^2, FIG. 5B) is recorded as “some reduction”. Also, the “influence on viral loads of human rhinovirus 1B” value in the test with human rhinovirus 1B (0.1, 1, 10 μM RFN in Saliva 1, 425 nm light up to 30 J/cm^2, FIG. 5A) is reported as “little to no influence”. Besides, in the test on MERS-CoV, the “reductions in viral loads of MERS-CoV” value is “greater than 99.999%”. For the same molecule, the “change in HCoV-OC43 viral load compared with the 0 μM RFN sample” value in test [1] is listed as “significant decreases”. Moreover, the “reduction in viral loads of influenza B” value with influenza B is reported as “dramatic reduction”. For the same molecule, the “inhibition in viral load of influenza A by riboflavin dosing alone” value with influenza A (0 J/cm^2 (no light), 0.1-10 μM riboflavin, FIG. 6E) was “some inhibition”. The “reduction in viral loads of influenza A” value with influenza A (1 μM riboflavin, FIG. 6E) is on record as “some reduction”; with influenza A (10 μM riboflavin, FIG. 6E) it was “substantial reduction; also recorded: dramatic reduction”. Moreover, the “change in viral loads of influenza A” value in the test on influenza A (10 μM riboflavin, 425 nm light 32 J/cm^2, FIG. 6D) is listed as “dramatic decreases”.

These data come from patent US11980774B2, “Illumination devices and related methods for phototherapeutic light treatments in the presence of vitamins” (priority 2021, dated 2024).
